Results as given in patent US20130195926A1, “MODULATION OF NITRIC OXIDE SIGNALING TO NORMALIZE TUMOR VASCULATURE” (The General Hospital Corporation, priority 2007, published 2013).

Test system: 10T1/2 cells
Test: Transwell migration of 10T1/2 cells toward HUVECs
Type: cell-based
Method: FIGS. 13A-C show the role of the NO-sGC-cGMP pathway in perivascular cell recruitment and migration. (A) In bar graph form, cGMP production in cultured 10T1/2 cells in response to NO donor or PDE5 inhibitor. (B) In bar graph form, the migration of 10T1/2 cells in a transwell assay. 10T1/2 cell migration was assessed using Falcon HTS FluoroBlok inserts with 1 μm pores. GFP-expressing 10T1/2 cells were inoculated in the inserts, and HUVECs were inoculated in the outer well. Percent area of transwell filter covered by migrated 10T1/2 cells was determined. Medium only indicates no HUVECs in the outer well. ODQ, T-1032, Sildenafil, or Sildenafil+L-NMMA were added to the medium. *P<0.05 vs. control (HUVEC). (C) Images for transmigrated GFP-10T1/2 cells at the back side of the Fluoroblock insert after 10 hours with control vs. T-1032 treatment.
FIGS. 14A-B show the effect of PI3K inhibition on transwell migration of 10T1/2 cells toward HUVECs. 10T1/2 cell migration was assessed using Falcon HTS FluoroBlock inserts with 1 μm pores. GFP-expressing 10T1/2 cells were inoculated in the inserts and human umbilical vein endothelial cells (HUVECs) were inoculated in the outer well. (A) Images for transmigrated GFP-10T1/2 cells at the back side of the FluoroBlock insert after 16 hours. Images are 865 μm across. (B) Quantification of 10T1/2 cell transwell migration. Data are expressed as percentage relative to the control (HUVEC) migration of the same experimental batch. Medium represents no HUVECs in the outer well. LS294002 10 μM was added. n=4 each. *p<0.05 as compared to the control (HUVEC).
The effect of sGC inhibitor was next examined on 10T1/2 cell migration. […] Finally, the effect of PDE5 inhibitors on 10T1/2 cell migration was examined. […] L-NMMA abolished induction of 10T1/2 cell migration induced by Sildenafil. (Mann-Whitney U-test).
To elucidate the downstream signaling pathway of NO-dependent perivascular cell recruitment, the effect of PI3K inhibitor […] (10 μM) on the transwell 10T1/2 cell migration toward HUVECs was determined (FIG. 14A-B).

## O=c1cc(N2CCOCC2)oc2c(-c3ccccc3)cccc12 [LY291002]
10 μM, 16 hours
  transwell 10T1/2 cell migration toward HUVECs: significantly inhibited

## O=c1onc2cnc3ccccc3n12 [ODQ]
10μM
  10T1/2 cell migration to HUVECs: significantly reduced

## CCCc1nn(C)c2c(=O)[nH]c(-c3cc(S(=O)(=O)N4CCN(C)CC4)ccc3OCC)nc12 [Sildenafil]
40 nM
  10T1/2 cell migration: significantly enhanced
